Measurements reported in PMC6317804, “The integration of pharmacophore-based 3D QSAR modeling and virtual screening in safety profiling: A case study to identify antagonistic activities against adenosine receptor, A2A, using 1,897 known drugs” (PLoS ONE, 2019).
Like-named read-outs stand apart in the source and are kept apart here.

Assays:
[1] = molecular target: T1, adenosine receptor 2A (A2A) (Homo sapiens, UniProt P29274); conditions: cited from earlier work; for IC50: S1 Table, compounds given as SMILES, downloaded from ChEMBL; for measured pIC50: training set compound, negative logarithm of IC50
T1 construct: CEREP (Poitiers, France), paid service
T1 sequence (P29274 whole entry): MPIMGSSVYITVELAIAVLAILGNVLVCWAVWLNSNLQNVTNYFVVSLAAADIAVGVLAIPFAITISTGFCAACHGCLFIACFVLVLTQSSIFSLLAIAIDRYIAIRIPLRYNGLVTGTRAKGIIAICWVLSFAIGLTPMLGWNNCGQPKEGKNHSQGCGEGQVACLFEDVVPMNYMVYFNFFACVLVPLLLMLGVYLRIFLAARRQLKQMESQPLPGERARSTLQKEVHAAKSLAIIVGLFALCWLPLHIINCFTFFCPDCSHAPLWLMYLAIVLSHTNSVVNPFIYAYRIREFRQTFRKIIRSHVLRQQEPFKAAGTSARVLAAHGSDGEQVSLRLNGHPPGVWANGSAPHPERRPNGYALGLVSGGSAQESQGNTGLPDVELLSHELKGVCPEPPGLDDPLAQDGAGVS

[2] = molecular target: T1, adenosine receptor 2A (A2A); experiment: Functional assay monitoring Ca2+ flux (DiscoveRx); type: cell-based; design: inhibition: dose or concentration left out as unconfirmed; conditions: for inhibition: read-out: IC50, Ca2+, M
Experimental: (§1) Competition binding assay using radioactive ligands and functional assay monitoring cAMP were carried out as a paid service provided by CEREP (Poitiers, France). The functional assays monitoring Ca^2+ flux were carried out as a paid service provided by DiscoveRx (Carlsbad, CA).

[3] = molecular target: T1, adenosine receptor 2A (A2A); experiment: Functional antagonist assay monitoring cAMP (CEREP); type: cell-based;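 for IC50, cAMP, M: eight-point concentration-response from 0 to 10 µM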
Experimental: as §1

[4] = molecular target: T1, adenosine receptor 2A (A2A); experiment: Competition binding assay using radioactive ligands (CEREP); design: inhibition: dose or concentration left out as unconfirmed; conditions: for inhibition at 10 µM: fixed compound concentration of 10 μM;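 for all read-outs here: compounds screened at a single fixed 10 µM concentration for displacement of a radioligand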
Experimental: as §1

[5] = concentration-response up to 10 μM, read-out: IC50, cAMP
[6] = concentration-response up to 10 μM, read-out: IC50, Ca2+

Molecule	IC50 [1]	also measured
CCNc1cc2nc(NCc3cccnc3)nc(C(=O)c3cccs3)c2s1	2.48 µM	–
CCOC(=O)Nc1cc(-c2cncc(OC)c2)nc(-n2nc(C)cc2C)n1	0.196 µM	–
Cc1ccc(C(=O)c2nc(NC(C)c3ccccc3)nc3ccsc23)s1 (centres unmarked)	1.08 µM	–
Cc1ccc(C(=O)c2nc(NC(C)c3ccccn3)nc3ccsc23)s1 (centres unmarked)	0.118 µM	–
Cc1ccc(C(=O)c2nc(NC(C)c3cccnc3)nc3ccsc23)s1 (centres unmarked)	0.099 µM	–
CC(=O)Nc1cc(-c2cccc(N3CCC(O)CC3)n2)nc(-n2nc(C)cc2C)n1	0.022 µM	–
CC(=O)Nc1cc(-c2cncc(O)c2)nc(-n2nc(C)cc2C)n1	0.064 µM	–
CCc1ccccc1-n1nc(C)c(-c2ccc3nccnc3c2)c1Nc1ccc(OC)cc1C(=O)O	50 µM	–
CCc1nn(-c2ccccc2C)c(Nc2ccccc2C(=O)O)c1-c1ccc2nccnc2c1	50 µM	–
CN(C)c1cc2nc(NCc3cccnc3)nc(C(=O)c3cccs3)c2s1	1.42 µM	–
Cc1ccc(C(=O)c2nc(N(C)Cc3cccnc3)nc3ccsc23)s1	2.27 µM	–
CNc1cc2nc(NCc3cccnc3)nc(C(=O)c3cccs3)c2s1	0.965 µM	–
COC(=O)Nc1cc(-c2cncc(OC)c2)nc(-n2nc(C)cc2C)n1	0.167 µM	–
COc1ccc(CCCn2ncc3c2nc(N)n2nc(-c4ccco4)nc32)cc1OC	0.02 µM	–
COc1ccc(Nc2c(-c3ccc4nccnc4c3)c(C)nn2-c2ccccc2C)c(C(=O)O)c1	50 µM	–
COc1ccc(Nc2c(-c3ccc4nccnc4c3)c(C)nn2-c2ccccc2Cl)c(C(=O)O)c1	50 µM	–
COc1ccc(C(=O)c2nc(NCc3cccnc3)nc3ccsc23)cc1	0.637 µM	–
COc1cccc(-c2cc(NC(C)=O)nc(-n3nc(C)cc3C)n2)c1F	0.032 µM	–
C[C@H](Nc1nc(C(=O)N2CCCC2)c2sccc2n1)c1cccnc1	0.468 µM	–
C[C@@H](Nc1nc(C(=O)N2CCCC2)c2sccc2n1)c1cccnc1	6.76 µM	–
Cc1ccc(Nc2c(-c3ccc4nccnc4c3)c(C)nn2-c2ccccc2C)c(C(=O)O)c1	50 µM	–
Cc1ccc(C(=O)c2nc(NCc3cccnc3)nc3ccsc23)cc1	0.442 µM	–
Cc1ccc(C(=O)c2nc(NCCc3ccccn3)nc3ccsc23)s1	0.351 µM	–
Cc1ccc(C(=O)c2nc(NCCc3cccnc3)nc3ccsc23)s1	0.177 µM	–

Molecule	IC50 [1]	also measured
Cc1ccc(C(=O)c2nc(NC(=O)c3cccnc3)nc3ccsc23)s1	0.161 µM	–
Cc1ccccc1-n1nc(C)c(-c2cc(F)c3nccnc3c2)c1Nc1ccccc1C(=O)O	50 µM	–
Cc1ccccc1-n1nc(C)c(-c2ccc3nccnc3c2)c1Nc1ccc(Cl)cc1C(=O)O	50 µM	–
Cc1ccccc1-n1nc(C(F)(F)F)c(-c2ccc3nccnc3c2)c1Nc1ccccc1C(=O)O	50 µM	–
Cc1ccccc1-n1ncc(-c2ccc3nccnc3c2)c1Nc1ccccc1C(=O)O	50 µM	–
CCNc1c2c(nc(NC(=O)Nc3ccc(OC)cc3)n3nc(-c4ccco4)nc23)nn1C	0.061 µM	–
O=C(c1cccs1)c1nc(NCc2cccnc2)nc2cc(Cl)sc12	0.062 µM	–
O=C(c1ccc(Cl)s1)c1nc(NCc2cccnc2)nc2ccsc12	1.54 µM	–
Nc1nc2c(cnn2CCCc2ccc(O)cc2)c2nc(-c3ccco3)nn12	0.01 µM	–
Nc1nc2c(cnn2CCc2ccc(OCc3ccccc3)cc2)c2nc(-c3ccco3)nn12	0.09 µM	–
Nc1nc2c(cnn2Cc2ccc(OCc3ccccc3)cc2)c2nc(-c3ccco3)nn12	0.5 µM	–
5-methoxy-2-((3-methyl-1-phenyl-4-(quinoxalin-6-yl)-1H-pyrazol-5-yl)amino)benzoic acid	5.5 µM	IC50 ([1]; listed as COc1ccc(Nc2c(c(C)nn2C3CCCCC3)c4ccc5nccnc5c4)c(c1)C(=O)O): 50 µM; measured pIC50 [1]: 4.3
N=C(N)NC(=O)c1nc(Cl)c(N)nc1N [Amiloride]	–	inhibition [2]: < 50%; inhibition ([3]; read-out: IC50, cAMP, M): < 50%; inhibition ([4]; read-out: %inhibition, binding): 53%
Cc1cc2c(OCC(CNC(C)(C)C)OC(=O)c3ccccc3)cccc2[nH]1 (centres unmarked) [Bopindolol]	–	inhibition [2]: < 50%; inhibition at up to 10 µM [3, 5]: < 50%; inhibition at 10 µM [4]: < 50%
CC(C)C[C@H](NC(=O)[C@H](Cc1ccccc1)NC(=O)c1cnccn1)B(O)O [Bortezomib]	–	inhibition [2]: < 50%; inhibition at up to 10 µM [3, 5]: < 50%; inhibition at 10 µM [4]: < 50%
COc1ccccc1Oc1c(NS(=O)(=O)c2ccc(C(C)(C)C)cc2)nc(-c2ncccn2)nc1OCCO [Bosentan]	–	inhibition at 10 µM [2, 6]: < 50%; inhibition at 10 µM [3, 5]: < 50%; inhibition at 10 µM [4]: < 50%
CC(C)NC(=O)c1nc(NCc2cccnc2)nc2ccsc12 [CC(C)NC(=O)c1nc(NCc2cccnc2)nc3ccsc13, N-isopropyl-2-((pyridin-3-ylmethyl)amino)thieno[3,2-d]pyrimidine-4-carboxamide]	–	measured pIC50 [1]: 5.6
CC(Nc1nc(C(=O)N2CCCC2)c2sccc2n1)c1cccnc1 (centres unmarked) [CC(Nc1nc(C(=O)N2CCCC2)c3sccc3n1)c4cccnc4]	2.35 µM	–
CCCSc1c2c(nc(N)n3nc(-c4ccco4)nc23)nn1C [CCCSc1c2c(nc(N)n3nc(nc23)c4occc4)nn1C]	0.0148 µM	–
CCNC(=O)c1nc(NCc2cccnc2)nc2ccsc12 [CCNC(=O)c1nc(NCc2cccnc2)nc3ccsc13]	2.52 µM	–
CCNc1nc(C(=O)c2ccc(C)s2)c2sccc2n1 [CCNc1nc(C(=O)c2ccc(C)s2)c3sccc3n1]	0.126 µM	–
CCc1nc(C(=O)c2ccc(C)s2)c2sccc2n1 [CCc1nc(C(=O)c2ccc(C)s2)c3sccc3n1]	3.85 µM	–
CSc1c2c(nc(N)n3nc(-c4ccco4)nc23)nn1C [CSc1c2c(nc(N)n3nc(nc23)c4occc4)nn1C]	0.0061 µM	–
C=CCN1C[C@H](C(=O)N(CCCN(C)C)C(=O)NCC)C[C@@H]2c3cccc4[nH]cc(c34)C[C@H]21 [Cabergoline]	–	inhibition [2]: < 50%; inhibition at up to 10 µM [3, 5]: < 50%; inhibition at 10 µM [4]: < 50%

Molecule	IC50 [1]	also measured
CCCCCOC(=O)Nc1nc(=O)n([C@@H]2O[C@H](C)[C@@H](O)[C@H]2O)cc1F [Capecitabine]	–	inhibition [2]: < 50%; inhibition at up to 10 µM [3, 5]: < 50%; inhibition at 10 µM [4]: < 50%
Cc1nc(C(=O)c2ccc(C)s2)c2sccc2n1 [Cc1ccc(s1)C(=O)c2nc(C)nc3ccsc23]	7.85 µM	–
Cc1ccc(C(=O)c2nc(N)nc3ccsc23)s1 [Cc1ccc(s1)C(=O)c2nc(N)nc3ccsc23]	0.22 µM	–
Cc1ccc(C(=O)c2nc(NCC3CCCCC3)nc3ccsc23)s1 [Cc1ccc(s1)C(=O)c2nc(NCC3CCCCC3)nc4ccsc24]	10 µM	IC50 ([1]; listed as Cc1ccc(s1)C(=O)c2nc(NCc3ccccc3)nc4ccsc24): 7.15 µM
Cc1ccc(C(=O)c2nc(NCc3ccccn3)nc3ccsc23)s1 [Cc1ccc(s1)C(=O)c2nc(NCc3ccccn3)nc4ccsc24]	0.186 µM	–
Cc1ccc(C(=O)c2nc(NCc3cccnc3)nc3ccsc23)s1 [Cc1ccc(s1)C(=O)c2nc(NCc3cccnc3)nc4ccsc24]	0.99 µM	–
Cc1ccc(C(=O)c2nc(NCc3ccncn3)nc3ccsc23)s1 [Cc1ccc(s1)C(=O)c2nc(NCc3ccncn3)nc4ccsc24]	0.116 µM	measured pIC50 [1]: 6.9
Cc1ccc(C(=O)c2ncnc3ccsc23)s1 [Cc1ccc(s1)C(=O)c2ncnc3ccsc23]	6.69 µM	–
Cc1ccc(C(=O)c2nc(NCc3cccnc3)nc3ccsc23)o1 [Cc1oc(cc1)C(=O)c2nc(NCc3cccnc3)nc4ccsc24]	1.25 µM	–
CC1=C(C(=O)O)N2C(=O)[C@@H](NC(=O)[C@H](N)c3ccc(O)cc3)[C@H]2SC1 [Cefadroxil]	–	inhibition at up to 10 µM [2, 6]: < 50%; inhibition at up to 10 µM [3, 5]: < 50%; inhibition at 10 µM [4]: < 50%
C=CC1=C(C(=O)O)N2C(=O)[C@@H](NC(=O)/C(=N\O)c3csc(N)n3)[C@H]2SC1 [Cefdinir]	–	inhibition [2]: < 50%; inhibition at up to 10 µM [3, 5]: < 50%; inhibition at 10 µM [4]: < 50%
C=CC1=C(C(=O)O)N2C(=O)[C@@H](NC(=O)/C(=N\OCC(=O)O)c3csc(N)n3)[C@H]2SC1 [Cefixime]	–	inhibition [2]: < 50%; inhibition at up to 10 µM [3, 5]: < 50%; inhibition at 10 µM [4]: < 50%
CO[C@@]1(NC(=O)Cc2cccs2)C(=O)N2C(C(=O)O)=C(COC(N)=O)CS[C@@H]21 [Cefoxitin]	–	inhibition [2]: < 50%; inhibition at up to 10 µM [3, 5]: < 50%; inhibition at 10 µM [4]: < 50%
Nc1cc2nc(NCc3cccnc3)nc(C(=O)c3cccs3)c2s1 [Nc1cc2nc(NCc3cccnc3)nc(C(=O)c4cccs4)c2s1]	10 µM	–
O=C(c1nc(NCc2cccnc2)nc2ccsc12)N1CCCC1 [O=C(N1CCCC1)c2nc(NCc3cccnc3)nc4ccsc24]	6.14 µM	–
O=C(NC1CC1)c1nc(NCc2cccnc2)nc2ccsc12 [O=C(NC1CC1)c2nc(NCc3cccnc3)nc4ccsc24]	0.71 µM	–
O=C(c1ccccc1)c1nc(NCc2cccnc2)nc2ccsc12 [O=C(c1ccccc1)c2nc(NCc3cccnc3)nc4ccsc24]	1.62 µM	–
O=C(c1cccnc1)c1nc(NCc2cccnc2)nc2ccsc12 [O=C(c1cccnc1)c2nc(NCc3cccnc3)nc4ccsc24]	1.17 µM	–
O=C(c1cccs1)c1nc(NCc2cccnc2)nc2ccsc12 [O=C(c1cccs1)c2nc(NCc3cccnc3)nc4ccsc24]	0.051 µM	–
O=C(c1ccncc1)c1nc(NCc2cccnc2)nc2ccsc12 [O=C(c1ccncc1)c2nc(NCc3cccnc3)nc4ccsc24]	1.94 µM	–
O=C(c1ccsc1)c1nc(NCc2cccnc2)nc2ccsc12 [O=C(c1ccsc1)c2nc(NCc3cccnc3)nc4ccsc24]	0.405 µM	–
O=C(c1cncs1)c1nc(NCc2cccnc2)nc2ccsc12 [O=C(c1cncs1)c2nc(NCc3cccnc3)nc4ccsc24]	1.72 µM	–
O=C(c1nccs1)c1nc(NCc2cccnc2)nc2ccsc12 [O=C(c1nccs1)c2nc(NCc3cccnc3)nc4ccsc24]	0.732 µM	–
